Reference: EP1206258B1, “COMPOSITIONS CONTAINING ESTERS FOR TREATING PARASITIC INFESTATIONS OF ORGANISMS” (priority 1999, dated 2001)

Experiments:
mealworms, T.molibr = assay: filter paper treatment of mealworms; conditions: 5 mealworms
Excerpt: Additionally, it was also noted that Ethyl cinnamate is toxic to insects, at least mealworms, T.molibr. […] 5 mealworms were placed onto each filter paper treatment. Although all were of the same instar, the 10-1 individuals were slightly larger. […] 10-7 did die. Therefore, the size of larvae appears to be important.

eggs of L.sericata = assay: in vitro test on hatching of eggs of L.sericata (immersion); set-up: species or system Lucilia sericata; conditions: V/V in 2.0% W/V aqueous lecithin
Protocol: A series of in vitro tests were carried out to investigate the effects of the compound trans-cinnamic acid ethyl ester on the hatching of eggs of L.sericata.
A blowfly culture originating from the Central Veterinary Laboratory based in Weybridge, Surrey was used for the tests. None of the original adults had previously been exposed or resistant to insecticides. Eggs aged 10±2 hours of the blowfly were harvested on pig's liver in clusters using a prolene 4/0 paintbrush and examined under the binocular microscope for suitablility. Adult females used to produce these eggs were kept at 20°C, rh 70±5%, with a photoperiod of 8 hours. Groups of 30 eggs were then immediately transferred to a 9-cm Whatman filter paper in a 9-cm plastic petri dish. Two ml of cinnamic acid ethyl ester at concentrations in the range 1.0%; 2.5%; 5.0%; 7.5% and 10.0% V/V was poured gently into the petri dish immersing the eggs. Each concentration was previously prepared by dilution of active compound in a 2.0% W/V aqueous lecithin solution pre-warmed to 20°C. The mixture was sonicated for two minutes. After an exposure time of 1 minute, the test solution was carefully poured off and the eggs recovered individually to a 7ml polythene container in which a filter paper was saturated with pig's liver washings. […] Eggs following treatment were incubated at 25°C, rh 70±2% with a photoperiod of 8 hours duration. Hatching typically occurred within 12 hours of treatment.
Each concentration was replicated twice; controls were treated using only lecithin solution. The whole experiment was repeated using two further exposure times of 30 minutes and 90 minutes respectively.
The data were analysed using fitted curve graphical analysis. […] The data gathered from the experiment with an exposure time of 1 minute was also expressed using the probit transformation.
Fitted curves were used to calculate the concentration required to kill 50% of the eggs, (LC50) using the data obtained after immersing the eggs in solutions ranging from 1.0% to 10.0% V/V. The median lethal concentrations, (LC50) and LC95 concentrations are shown in Table 4 below:- Table 4

Aspergillus nidulans = assay: growth inhibition test on SAB agar, A. nidulans; type: cell-based
Protocol: The antifungal activity of ethyl trans-cinnamate against a number of different fungi was investigated by means of in a simple growth inhibition test.
The following quantities of Ethyl trans-Cinnamate were added to Sabourand Dextrose agar (SAB); 50 ml L^-1, 4ml L^-1, 2ml L^-1, 1ml L^-1, 400 µl L^-1, 200 µl L^-1 and 40 µl L^-1. […] These were then autoclaved and poured into standard Petri dishes. […] Duplicate plates of each concentration, plus control plates containing only SAB Agar, where then separately inoculated with, four different species of fungi, these were Aspergillus nidulans, Penicillium digitatum, Rhizopus arrhizus and Fusarium culmorum. Inoculation was carried out using a single stab at the centre of each Petri dish. The plates were then incubated at 30°C for 6 days and daily measurements of mycobial growth where taken every 24 hours.

human volunteers = conditions: 24 hour closed-patch test, 25 human volunteers (Kligman 1973); cited from earlier work
[1] = Lethal Concentrations at 1 minute
[2] = Lethal Concentrations at 30 minutes

## CCOC(=O)/C=C/c1ccccc1 [trans-cinnamic acid ethyl ester]
mealworms, T.molibr; concentration 10-1, slightly larger individuals, moulted after two days
  death of mealworms: did not die
mealworms, T.molibr; concentration printed 10-7
  death of mealworms: did die
Eggs of L.sericata; [1]
  LC50: LC50 2.76%
  LC95: LC95>7.50%
Eggs of L.sericata; [2]
  LC50: LC50 1.78%
  LC95: LC95>5.00%
Eggs of L.sericata; Lethal Concentrations at 90 minutes
  LC50: LC50 0.36%
Aspergillus nidulans; 1ml L^-1, Day 1
  Level of Radial Growth (mm) of A. nidulans: 0 mm
Aspergillus nidulans; 1ml L^-1, Day 2
  Level of Radial Growth (mm) of A. nidulans: 0 mm
Aspergillus nidulans; 1ml L^-1, Day 3
  Level of Radial Growth (mm) of A. nidulans: 6.0 mm
Aspergillus nidulans; 1ml L^-1, Day 4
  Level of Radial Growth (mm) of A. nidulans: 11.5 mm
Aspergillus nidulans; 1ml L^-1, Day 5
  Level of Radial Growth (mm) of A. nidulans: 16.5 mm
Aspergillus nidulans; 1ml L^-1, Day 6
  Level of Radial Growth (mm) of A. nidulans: 22.0 mm
Aspergillus nidulans; 2ml L^-1, Day 1
  Level of Radial Growth (mm) of A. nidulans: 0 mm
Aspergillus nidulans; 2ml L^-1, Day 2
  Level of Radial Growth (mm) of A. nidulans: 0 mm
Aspergillus nidulans; 2ml L^-1, Day 3
  Level of Radial Growth (mm) of A. nidulans: 0 mm
Aspergillus nidulans; 2ml L^-1, Day 4
  Level of Radial Growth (mm) of A. nidulans: 0 mm
Aspergillus nidulans; 2ml L^-1, Day 5
  Level of Radial Growth (mm) of A. nidulans: 6.5 mm
Aspergillus nidulans; 2ml L^-1, Day 6
  Level of Radial Growth (mm) of A. nidulans: 12.5 mm
Aspergillus nidulans; 4ml L^-1, Day 1
  Level of Radial Growth (mm) of A. nidulans: 0 mm
Aspergillus nidulans; 4ml L^-1, Day 2
  Level of Radial Growth (mm) of A. nidulans: 0 mm
Aspergillus nidulans; 4ml L^-1, Day 3
  Level of Radial Growth (mm) of A. nidulans: 0 mm
Aspergillus nidulans; 4ml L^-1, Day 4
  Level of Radial Growth (mm) of A. nidulans: 0 mm
Aspergillus nidulans; 4ml L^-1, Day 5
  Level of Radial Growth (mm) of A. nidulans: 0 mm
Aspergillus nidulans; 4ml L^-1, Day 6
  Level of Radial Growth (mm) of A. nidulans: 4.5 mm
Aspergillus nidulans; 40µl L^-1, Day 1
  Level of Radial Growth (mm) of A. nidulans: 0 mm
Aspergillus nidulans; 40µl L^-1, Day 2
  Level of Radial Growth (mm) of A. nidulans: 12.0 mm
Aspergillus nidulans; 40µl L^-1, Day 3
  Level of Radial Growth (mm) of A. nidulans: 23.0 mm
Aspergillus nidulans; 40µl L^-1, Day 4
  Level of Radial Growth (mm) of A. nidulans: 27.0 mm
Aspergillus nidulans; 40µl L^-1, Day 5
  Level of Radial Growth (mm) of A. nidulans: 32.5 mm
Aspergillus nidulans; 40µl L^-1, Day 6
  Level of Radial Growth (mm) of A. nidulans: 38 mm
Aspergillus nidulans; 50ml L-^1 level
  inhibition of growth: complete inhibition of growth
Aspergillus nidulans; 50 ml L^-1, Day 1
  Level of Radial Growth (mm) of A. nidulans: 0 mm
Aspergillus nidulans; 50 ml L^-1, Day 2
  Level of Radial Growth (mm) of A. nidulans: 0 mm
Aspergillus nidulans; 50 ml L^-1, Day 3
  Level of Radial Growth (mm) of A. nidulans: 0 mm
Aspergillus nidulans; 50 ml L^-1, Day 4
  Level of Radial Growth (mm) of A. nidulans: 0 mm
Aspergillus nidulans; 50 ml L^-1, Day 5
  Level of Radial Growth (mm) of A. nidulans: 0 mm
Aspergillus nidulans; 50 ml L^-1, Day 6
  Level of Radial Growth (mm) of A. nidulans: 0 mm
Aspergillus nidulans; 200µl L^-1, Day 1
  Level of Radial Growth (mm) of A. nidulans: 0 mm
Aspergillus nidulans; 200µl L^-1, Day 2
  Level of Radial Growth (mm) of A. nidulans: 9.5 mm
Aspergillus nidulans; 200µl L^-1, Day 3
  Level of Radial Growth (mm) of A. nidulans: 16.5 mm
Aspergillus nidulans; 200µl L^-1, Day 4
  Level of Radial Growth (mm) of A. nidulans: 23.0 mm
Aspergillus nidulans; 200µl L^-1, Day 5
  Level of Radial Growth (mm) of A. nidulans: 28.0 mm
Aspergillus nidulans; 200µl L^-1, Day 6
  Level of Radial Growth (mm) of A. nidulans: 34.5 mm
Aspergillus nidulans; 400µl L^-1, Day 1
  Level of Radial Growth (mm) of A. nidulans: 0 mm
Aspergillus nidulans; 400µl L^-1, Day 2
  Level of Radial Growth (mm) of A. nidulans: 5.5 mm
Aspergillus nidulans; 400µl L^-1, Day 3
  Level of Radial Growth (mm) of A. nidulans: 11.5 mm
Aspergillus nidulans; 400µl L^-1, Day 4
  Level of Radial Growth (mm) of A. nidulans: 18.0 mm
Aspergillus nidulans; 400µl L^-1, Day 5
  Level of Radial Growth (mm) of A. nidulans: 24.5 mm
Aspergillus nidulans; 400µl L^-1, Day 6
  Level of Radial Growth (mm) of A. nidulans: 30.0 mm
Human volunteers
  sensitization: no sensitization
